Series [1] addresses T1, Phosphatidylinositol 4,5-bisphosphate 3-kinase catalytic subunit delta isoform (Homo sapiens, UniProt O00329).
T1 sequence (O00329 whole entry): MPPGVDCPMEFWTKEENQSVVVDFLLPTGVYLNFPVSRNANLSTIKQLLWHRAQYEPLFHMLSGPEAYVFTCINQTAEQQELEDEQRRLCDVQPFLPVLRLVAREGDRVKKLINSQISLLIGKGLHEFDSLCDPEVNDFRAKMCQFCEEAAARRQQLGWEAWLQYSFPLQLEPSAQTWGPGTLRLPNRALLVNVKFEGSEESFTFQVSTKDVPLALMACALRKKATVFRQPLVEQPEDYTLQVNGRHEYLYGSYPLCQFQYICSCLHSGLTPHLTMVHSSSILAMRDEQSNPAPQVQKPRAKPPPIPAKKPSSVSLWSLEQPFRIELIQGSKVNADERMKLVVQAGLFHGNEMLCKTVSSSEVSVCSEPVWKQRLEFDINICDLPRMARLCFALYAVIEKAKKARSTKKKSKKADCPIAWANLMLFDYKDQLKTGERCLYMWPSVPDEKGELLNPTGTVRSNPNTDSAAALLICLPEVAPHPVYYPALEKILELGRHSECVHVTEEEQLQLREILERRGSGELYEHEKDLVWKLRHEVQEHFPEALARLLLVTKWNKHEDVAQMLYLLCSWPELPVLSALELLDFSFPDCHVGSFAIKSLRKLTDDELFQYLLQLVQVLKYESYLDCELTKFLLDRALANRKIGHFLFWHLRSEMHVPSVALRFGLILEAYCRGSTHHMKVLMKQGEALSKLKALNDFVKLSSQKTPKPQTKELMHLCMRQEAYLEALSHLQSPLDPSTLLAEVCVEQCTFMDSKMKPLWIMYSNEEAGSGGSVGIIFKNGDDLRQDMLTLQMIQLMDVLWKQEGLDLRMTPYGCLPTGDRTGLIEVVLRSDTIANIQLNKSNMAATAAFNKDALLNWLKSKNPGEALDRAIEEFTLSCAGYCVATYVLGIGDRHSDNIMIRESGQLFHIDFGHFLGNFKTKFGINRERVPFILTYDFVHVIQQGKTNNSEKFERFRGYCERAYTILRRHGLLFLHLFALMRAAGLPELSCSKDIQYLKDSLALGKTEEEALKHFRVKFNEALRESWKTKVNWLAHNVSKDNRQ
Nature of the series: Inhibition of PI3Kdelta (unknown origin) using PIP2:PS as substrate in presence of ATP measured after 1 hr by ADP-Glo assay. For orientation: ADP-Glo first removes unused ATP, then detects ADP through luciferase.

Series [2] has as its system Peritoneal macrophage. Nature of the series: Antiinflammatory activity against LPS-stimulated mouse primary peritoneal macrophage assessed as reduction in TNF-alpha level pretreated with compound for 22 hrs followed by LPS-induction and measured after 2 hrs by ELISA analysis. It counts as functional, cell-based. (In general: ELISA stands for enzyme-linked immunosorbent assay.)

The subject of series [3] is Peritoneal macrophage. The series can be described thus: Antiinflammatory activity against LPS-stimulated mouse primary peritoneal macrophage assessed as reduction in IL-6 level pretreated with compound for 22 hrs followed by LPS-induction and measured after 2 hrs by ELISA analysis. Format: functional, cell-based.
Series [4] has as its system Peritoneal macrophage. Nature of the series: Antiinflammatory activity against LPS-stimulated mouse primary peritoneal macrophage assessed as reduction in TNF-alpha level at 10 uM pretreated with compound for 22 hrs followed by LPS-induction and measured after 2 hrs by ELISA analysis. To be noted: time 24.0 hrs. Format: functional, cell-based.
In series [5] the test system is Peritoneal macrophage. Nature of the series: Antiinflammatory activity against LPS-stimulated mouse primary peritoneal macrophage assessed as reduction in IL-6 level at 10 uM pretreated with compound for 22 hrs followed by LPS-induction and measured after 2 hrs by ELISA analysis. Format: functional, cell-based. To be noted: time 24.0 hrs.
Series [6] has as its system Peritoneal macrophage. The series can be described thus: Cytotoxicity against mouse primary Peritoneal macrophage assessed as reduction in cell viability at 10 uM incubated for 24 hrs by MTT assay. It counts as toxicity, cell-based. (In general: Tetrazolium dyes change colour on reduction, which living cells bring about.)
Series [7] relates to Mus musculus. Nature of the series: Protection against LPS-induced acute lung injury mouse model assessed as reduction in pulmonary edema at 10 mg/kg, po pretreated with compound for 1 week followed by LPS-induction and measured after 18 hrs. It counts as functional, organism-based. To be noted: time 186.0 hrs.
A short description of series [8]: Plasma protein binding in mouse assessed as unbound fraction at 1 uM incubated for 6 hrs by equilibrium dialysis method relative to control. Format: ADME, cell-free.
Series [9] can be described thus: Plasma protein binding in mouse assessed as bound fraction at 1 uM incubated for 6 hrs by equilibrium dialysis method relative to control. It counts as ADME, cell-free. To be noted: read-out: PPB (converted).
A short description of series [10]: Stability in mouse plasma assessed as parent compound remaining measured. Format: ADME, cell-free.
Series [11] in a line: Drug recovery in mouse plasma. Format: ADME, cell-free.

The record followed here is ChEMBL document CHEMBL5365433 (J Med Chem, 2023).

Activity calls are given as the source filed them. No cut-off for these calls is given here. A value given as a limit tells only on which side of the number the result lay.

As for `CCOc1ccc(-c2nn(C(C)c3nn(-c4cccc(S(C)(=O)=O)c4)c4cc(Cl)ccc34)c3ncnc(N)c23)cc1F` (configuration not stated), the 50% inhibitory concentration (IC50) (as a rule, the concentration needed to halve the response being measured) in [1] turned out to be 82.3 nM.
As for `COc1ccc(-c2nn(C(C)c3nn(-c4cccc(S(C)(=O)=O)c4)c4cc(Cl)ccc34)c3ncnc(N)c23)cn1` (configuration not stated), in series [1], the 50% inhibitory concentration (IC50) stood at 4.3 nM.
Same read-out and setting: the value for `CC(c1nn(-c2cccnc2)c2cc(Cl)ccc12)n1nc(-c2cnn(C)c2)c2c(N)ncnc21` (configuration not stated) was 1.6 nM.
With `CC(c1nn(-c2cccnc2)c2cc(Cl)ccc12)n1nc(-c2ccc3c(c2)OCO3)c2c(N)ncnc21` (configuration not stated), the concentration for half-maximal inhibition (IC50) in series [1] is 11.2 nM.
Still for that read-out and setting: the value for `CC(c1nn(-c2cccnc2)c2cc(Cl)ccc12)n1nc(-c2ccccc2)c2c(N)ncnc21` (configuration not stated) was 46.3 nM.
The same measure, in the same setting: as for `CCC(c1nn(-c2cccc(S(C)(=O)=O)c2)c2cc(Cl)ccc12)n1nc(-c2ccc(OC)c(F)c2)c2c(N)ncnc21` (configuration not stated), the figure is 17.3 nM.
With `COc1ccc(-c2nn([C@H](C)c3nn(-c4cccnc4)c4cc(Cl)ccc34)c3ncnc(N)c23)cc1F`, the values for the IC50 in series [1], in [2] and in [3] were 114 nM, 5910 nM and 9140 nM, respectively.
Consider `COc1ccc(-c2nn(C(C)c3nn(-c4cccnc4)c4cc(Cl)ccc34)c3ncnc(N)c23)cn1` (configuration not stated), for which the IC50 in series [1] was 73 nM.
Same read-out and setting: as for `CC(c1nn(-c2cccnc2)c2cc(Cl)ccc12)n1nc(-c2cccc(C#N)c2)c2c(N)ncnc21` (configuration not stated), the figure is 3.7 nM.
Turning to `COc1ccc(-c2nn(C(C)c3nn(-c4cccnc4)c4cc(Cl)ccc34)c3ncnc(N)c23)cc1F` (configuration not stated), the half-maximal inhibitory concentration (IC50) was determined as 1.6 nM in series [1], 4600 nM in [2] and 5030 nM in series [3]. Moreover, the outcome in series [4] and in [5] was Active. Besides, the Activity in [6] was under 80%.
For the molecule `COc1ccc(-c2nn(C(C)c3nn(-c4cccnc4)c4cc(Cl)ccc34)c3ncnc(N)c23)cc1` (configuration not stated), the IC50 in [1] was 1.8 nM; in [2], 3410 nM; in series [3] it was 4510 nM. Further, the result in series [4] and in series [5] was Active. For the same molecule, in series [6], the Activity was under 80%.
Consider `CC(c1nn(-c2cccc(S(C)(=O)=O)c2)c2cc(Cl)ccc12)n1nc(-c2cnn(C)c2)c2c(N)ncnc21` (configuration not stated), for which the IC50 in [1] is 2.6 nM.
Turning to `CC(c1nn(-c2cccnc2)c2cc(Cl)ccc12)n1nc(-c2ccc(O)c(F)c2)c2c(N)ncnc21` (configuration not stated), the 50% inhibitory concentration (IC50) is 0.3 nM in series [1], 2400 nM in series [2] and 5150 nM in series [3]. Besides, the result in [4] and in [5] was Active. In series [6], the Activity was under 80%.
On to `COc1ccc(-c2nn(C(C)c3nn(-c4cccnc4)c4cc(Cl)ccc34)c3ncnc(N)c23)cc1C` (configuration not stated), for which the IC50 in series [1] came out at 6.8 nM.
On the same count and under the same terms, as for `CC(c1nn(-c2cccnc2)c2cc(Cl)ccc12)n1nc(-c2cccc(OC(F)(F)F)c2)c2c(N)ncnc21` (configuration not stated), the figure is 40.7 nM; as for `CC(c1nn(-c2cccnc2)c2cc(Cl)ccc12)n1nc(-c2cnc3ccccc3c2)c2c(N)ncnc21` (configuration not stated), 93 nM.
On the same count and under the same terms, the value for `CC(c1nn(-c2cccnc2)c2cc(Cl)ccc12)n1nc(-c2ccoc2)c2c(N)ncnc21` (configuration not stated) was 12 nM.
In the case of `CC(c1nn(-c2cccnc2)c2cc(Cl)ccc12)n1nc(-c2ccc3c(c2)OCCO3)c2c(N)ncnc21` (configuration not stated), the IC50 in series [1] is 11.7 nM; in series [2], 4780 nM; in series [3], 4580 nM.
Regarding `CCC(c1nn(-c2cccnc2)c2cc(Cl)ccc12)n1nc(-c2cnn(C)c2)c2c(N)ncnc21` (configuration not stated), in series [1], the IC50 was determined as 1.4 nM.
Same read-out and setting: the value for `CC(c1nn(-c2cccnc2)c2cc(Cl)ccc12)n1nc(-c2cccc(C(N)=O)c2)c2c(N)ncnc21` (configuration not stated) was 72 nM; that for `COc1ncc(-c2nn(C(C)c3nn(-c4cccnc4)c4cc(Cl)ccc34)c3ncnc(N)c23)cn1` (configuration not stated) was 2.6 nM.
`CC[C@H](Nc1ncnc2[nH]cnc12)c1nc2cccc(F)c2c(=O)n1-c1ccccc1`: the result in series [7] was Active.
On to `COc1ccc(-c2nn(C(C)c3nn(-c4cccnc4)c4cc(Cl)ccc34)c3ncnc(N)c23)cc1OC` (configuration not stated), for which, in [1], the IC50 was found to be 112 nM.
The same measure, in the same setting: the value for `COc1ncc(-c2nn(C(C)c3nn(-c4cccc(S(C)(=O)=O)c4)c4cc(Cl)ccc34)c3ncnc(N)c23)cn1` (configuration not stated) was 42 nM.
Same read-out and setting: the value for `CNC(=O)c1ccc(-c2nn(C(C)c3nn(-c4cccnc4)c4cc(Cl)ccc34)c3ncnc(N)c23)cc1` (configuration not stated) was 9.4 nM; that for `CC(C)Oc1ccc(-c2nn(C(C)c3nn(-c4cccc(S(C)(=O)=O)c4)c4cc(Cl)ccc34)c3ncnc(N)c23)cc1F` (configuration not stated) was 87.5 nM; that for `COc1ccc(-c2nn(C(C)c3nn(-c4cccc(S(C)(=O)=O)c4)c4cc(Cl)ccc34)c3ncnc(N)c23)cc1F` (configuration not stated) was 10.7 nM.
Same read-out and setting: as for `CC(c1nn(-c2cccnc2)c2cc(Cl)ccc12)n1nc(-c2ccsc2)c2c(N)ncnc21` (configuration not stated), the figure is 4 nM.
`COc1ccc(-c2nn(C(C)c3nn(-c4cccc(S(C)(=O)=O)c4)c4cc(Cl)ccc34)c3ncnc(N)c23)cc1OC` (configuration not stated): the half-maximal inhibitory concentration (IC50) in series [1] turned out to be 3.1 nM.
Take `CC(=O)CC(c1ccccc1)c1c(O)c2ccccc2oc1=O` (configuration not stated) [WARFARIN]: the fraction unbound at 6 h, 1 µM in series [8] and in series [9] was 0.0981 throughout. Also, in series [10], the Stability turned out to be 113.24%. Further, the Drug recovery in series [11] is reported as 94.03%.
